Source: patent US5233036A, “Rapamycin alkoxyesters” (American Home Products Corporation, priority 1992, dated 1993)
In brackets after ≈: the same amount, converted by molar mass. Where two headings read alike, the source gives them in different places.

Experiments:
Candida albicans [1] = test: Plate test procedure for measurement of inhibition (antifungal activity); assay type: cell-based
Procedure: The following represents the typical procedure used. Compound to be tested was placed on sterile dried 1/4" plate disks, and allowed to dry. Agar plates were seeded with fungi and allowed to solidify. The impregnated disks were placed on the seeded Agar surface and incubated for the time required for the particular culture. Results are expressed in MIC (μg/ml) to inhibit growth.

pinch skin graft = test: Survival time of pinch skin graft; assay type: in vivo, male DBA/2 donors transplanted to male BALB/c recipients; conditions: intraperitoneal; mean ± S.D.
Procedure: (§1) Immunosuppressive activity was evaluated in an in vitro standard pharmacological test procedure to measure lymphocyte proliferation (LAF) and in two in vivo standard pharmacological test procedures. The first in vivo procedure was a popliteal lymph node (PLN) test procedure which measured the effect of compounds of this invention on a mixed lymphocyte reaction and the second in vivo procedure evaluated the survival time of a pinch skin graft.
The second in vivo test procedure is designed to determine the survival time of pinch skin graft from male DBA/2 donors transplanted to male BALB/c recipients. The method is adapted from Billingham R. E. and Medawar P. B., J. Exp. Biol. 28:385-402, (1951). Briefly, a pinch skin graft from the donor is grafted on the dorsum of the recipient as a homograft, and an autograft is used as control in the same region. […] Untreated recipients serve as rejection control. The graft is monitored daily and observations are recorded until the graft becomes dry and forms a blackened scab. This is considered as the rejection day. The mean graft survival time (number of days±S.D.) of the drug treatment group is compared with the control group.

thymocyte proliferation = test: Comitogen-induced thymocyte proliferation procedure (LAF); assay type: cell-based, BALB/c mice; conditions: for LAF (ratio): ratio relative to rapamycin (rapamycin 1.0), 72 h culture, PHA and IL-1
Procedure: as §1
Briefly, cells from the thymus of normal BALB/c mice are cultured for 72 hours with PHA and IL-1 and pulsed with tritiated thymidine during the last six hours. […] Cells are harvested and incorporated; radioactivity is determined. Inhibition of lymphoproliferation is assessed in percent change in counts per minute from non-drug treated controls. The results are expressed by the following ratio, or as the percent inhibition of lymphoproliferation of 1 μM. [formula]

Candida albicans [2] = conditions: particularly against Candida albicans, both in vitro and in vivo; cited from earlier work
[3] = alone or in combination with picibanil; cited from earlier work
[4] = test system: experimental allergic encephalomyelitis; conditions: model for multiple sclerosis; cited from earlier work
[5] = test system: mixed lymphocyte reaction; test: Popliteal lymph node (PLN) test procedure (mixed lymphocyte reaction in vivo); set-up: species or system C3H mice (recipient), BALB/c donors; conditions: ratio relative to rapamycin (rapamycin 1.0); drug daily p.o. Day 0 to Day 4
Procedure: as §1
A mixed lymphocyte reaction (MLR) occurs when lymphoid cells from genetically distinct animals are combined in tissue culture. Each stimulates the other to undergo blast transformation which results in increased DNA synthesis that can be quantified by the incorporation of tritiated thymidine. Since stimulating a MLR is a function of disparity at Major Histocompatibility antigens, as in vivo popliteal lymph node (PLN) test procedure closely correlates to host vs. graft disease. Briefly, irradiated spleen cells from BALB/c donors are injected into the right hind foot pad of recipient C3H mice. The drug is given daily, p.o. from Day 0 to Day 4. On Day 3 and Day 4, tritiated thymidine is given i.p., b.i.d.. On Day 5, the hind popliteal lymph nodes are removed and dissolved, and radioactivity counted. […] Percent suppression is calculated using the non-drug treated animals as allogenic control. […]

[6] = ATCC38246, strain ATCC 38246, read-out: MIC
[7] = ATCC38247, strain ATCC 38247, read-out: MIC
[8] = ATCC38248, strain ATCC 38248, read-out: MIC

Compound | MIC (Candida albicans [1]; ATCC10231) [mg/L] | MIC (Candida albicans [1]; [6]) [mg/L] | MIC (Candida albicans [1]; [7]) [mg/L] | MIC (Candida albicans [1]; [8]) [mg/L] | MIC (Candida albicans [1]; strain 3669, read-out: MIC) [mg/L] | Skin graft survival time (days + SD) (pinch skin graft) [days] | suppression of T-cell proliferation (LAF), in words (thymocyte proliferation) | LAF (ratio) (thymocyte proliferation) | antifungal activity (Candida albicans [2]) | antitumor activity [3] | effectiveness in experimental allergic encephalomyelitis model [4] | PLN (ratio) [5] | MIC (Candida albicans [1]; ATCC10231, strain ATCC 10231, read-out: MIC) [mg/L]
CCOC(=O)CO[C@@H]1CC[C@@H](C[C@@H](C)[C@@H]2CC(=O)[C@H](C)/C=C(\C)[C@@H](O)[C@@H](OC)C(=O)[C@H](C)C[C@H](C)/C=C/C=C/C=C(\C)[C@@H](OC)C[C@@H]3CC[C@@H](C)[C@@](O)(O3)C(=O)C(=O)N3CCCC[C@H]3C(=O)O2)C[C@H]1OC [Example 1, 42-Deoxy-42-(2-ethoxy-2-oxoethoxy)rapamycin] | 0.5 (≈ 0.5 µM) | 0.1 (≈ 0.1 µM) | 0.2 (≈ 0.2 µM) | 0.1 (≈ 0.1 µM) | 0.05 (≈ 0.05 µM) | 7.5 ± 1.2 | suppressed T-cell proliferation | 0.46 |  |  |  |  | 
CO[C@H]1C[C@@H]2CC[C@@H](C)[C@@](O)(O2)C(=O)C(=O)N2CCCC[C@H]2C(=O)O[C@H]([C@H](C)C[C@@H]2CC[C@@H](O)[C@H](OC)C2)CC(=O)[C@H](C)/C=C(\C)[C@@H](O)[C@@H](OC)C(=O)[C@H](C)C[C@H](C)/C=C/C=C/C=C/1C [Rapamycin, rapamycin] |  |  |  |  |  |  |  |  | found to have antifungal activity | shown to have antitumor activity | effective in the experimental allergic encephalomyelitis model | 1.0 | 
CO[C@H]1C[C@@H]2CC[C@@H](C)[C@@](O)(O2)C(=O)C(=O)N2CCCC[C@H]2C(=O)O[C@H]([C@H](C)C[C@@H]2CC[C@@H](OCC(=O)OC(C)(C)C)[C@H](OC)C2)CC(=O)[C@H](C)/C=C(\C)[C@@H](O)[C@@H](OC)C(=O)[C@H](C)C[C@H](C)/C=C/C=C/C=C/1C [Example 2, 42-Deoxy-42-[2-(1,1-dimethylethoxy)-2-oxoethoxy]rapamycin] |  | 0.2 (≈ 0.194 µM) | 0.05 (≈ 0.0486 µM) | 0.1 (≈ 0.0972 µM) | 0.2 (≈ 0.194 µM) |  | suppressed T-cell proliferation | 0.27 |  |  |  |  | 0.05 (≈ 0.0486 µM)
